In US20250296959A1, “B7-H3 TARGETING PEPTIDES AND CONSTRUCTS THEREOF” (Mariana Oncology Inc., priority 2024, published 2025):
Starred links: 1 amine or outer side, 2 acyl side, 3 side chain; linkers in the order of their positions; H or OH if unused. Positions of bridges follow the written chain, without caps; N, C: chain ends. Non-standard residues stand in square brackets, D forms with d. Residues, ends and D or L forms follow the SMILES beside them. *: point of attachment. Ala(piperidin-4-yl) = O=C([C@H](CC1CCN([*:3])CC1)N[*:1])[*:2]; DOTA = O=C(O)CN1CCN(CC(=O)O)CCN(CC(=O)*)CCN(CC(=O)O)CC1; Trp(5-F) = N[C@@H](Cc1c[nH]c2ccc(F)cc12)C(=O)O; Trp(7-aza) = N[C@@H](Cc1c[nH]c2ncccc12)C(=O)O; Trp(1-Me) = Cn1cc(C[C@H](N)C(=O)O)c2ccccc21; Tyr(3-F) = N[C@@H](Cc1ccc(O)c(F)c1)C(=O)O; 2Nal = N[C@@H](Cc1ccc2ccccc2c1)C(=O)O; Phe(2-F) = N[C@@H](Cc1ccccc1F)C(=O)O; Phe(2-Me) = Cc1ccccc1C[C@H](N)C(=O)O; Hyp = O=C(O)[C@@H]1C[C@@H](O)CN1; 4Pal = N[C@@H](Cc1ccncc1)C(=O)O; Chg = N[C@H](C(=O)O)C1CCCCC1; Tle = CC(C)(C)[C@H](N)C(=O)O; hLeu = CC(C)CC[C@H](N)C(=O)O

target: T1, human 4lg B7-H3 (Homo sapiens, UniProt Q5ZPR3); assay: Affinity determination by surface plasmon resonance (SPR) to 4Ig B7-H3; settings: SPR KD—25° C., 4Ig B7-H3; 25° C. flow cell temperature
T1 sequence (Q5ZPR3 29-534): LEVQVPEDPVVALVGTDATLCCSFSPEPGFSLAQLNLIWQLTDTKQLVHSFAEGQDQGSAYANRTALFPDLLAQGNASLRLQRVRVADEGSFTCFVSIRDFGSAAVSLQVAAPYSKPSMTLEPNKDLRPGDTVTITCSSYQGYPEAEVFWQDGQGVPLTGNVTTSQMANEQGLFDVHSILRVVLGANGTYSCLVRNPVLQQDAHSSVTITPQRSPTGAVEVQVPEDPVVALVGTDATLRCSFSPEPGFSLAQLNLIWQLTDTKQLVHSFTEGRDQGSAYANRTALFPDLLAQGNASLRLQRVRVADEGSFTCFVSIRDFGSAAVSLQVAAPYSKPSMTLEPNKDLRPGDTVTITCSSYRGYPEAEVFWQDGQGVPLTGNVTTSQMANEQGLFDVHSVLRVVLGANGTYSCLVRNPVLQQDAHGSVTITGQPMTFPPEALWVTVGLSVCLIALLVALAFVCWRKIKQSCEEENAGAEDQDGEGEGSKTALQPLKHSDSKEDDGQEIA

Row | Kd [nM] | SMILES
1 | < 1 | CC(=O)N[C@@H](CCC(C)C)C(=O)N[C@@H](Cc1ccc(O)cc1)C(=O)N[C@H]1CSSC[C@@H](C(=O)N[C@@H](Cc2cn(C)c3ccccc23)C(=O)N[C@@H](Cc2ccccc2)C(=O)N[C@H](C(=O)N[C@H](CCCCNC(=O)CN2CCN(CC(=O)O)CCN(CC(=O)O)CCN(CC(=O)O)CC2)C(N)=O)[C@@H](C)O)NC(=O)[C@H](Cc2ccc(O)cc2)NC(=O)[C@H](C(C)C)NC(=O)[C@H](CC(=O)O)NC(=O)[C@H](Cc2ccc(O)cc2)NC(=O)[C@H](CCCCN)NC(=O)CNC(=O)[C@H](C(C)C)NC1=O [compound 150, Ac-hLeu-Y-C-V-G-K-Y-D-V-Y-C-Trp(Me)-F-Thr-dLys(DOTA)-CONH2] (Ac-[hLeu]YCVGKYDVYC[Trp(1-Me)]FT[dK](DOTA)-NH2; disulfide 3-11)
2 | 1 to 10 | CC(=O)N[C@@H](CCC(C)C)C(=O)N[C@@H](Cc1ccc(O)cc1)C(=O)N[C@H]1CSSC[C@@H](C(=O)N[C@@H](Cc2c[nH]c3ccccc23)C(=O)N[C@@H](Cc2ccccc2)C(=O)N[C@H](C(=O)N[C@H](CCCCNC(=O)CN2CCN(CC(=O)O)CCN(CC(=O)O)CCN(CC(=O)O)CC2)C(N)=O)[C@@H](C)O)NC(=O)[C@H](Cc2ccc(O)c(F)c2)NC(=O)[C@H](C(C)C)NC(=O)[C@H](CC(=O)O)NC(=O)[C@H](Cc2ccc(O)cc2)NC(=O)[C@H](CCCCN)NC(=O)CNC(=O)[C@H](C(C)C)NC1=O [compound 151, Ac-hLeu-Y-C-V-G-K-Y-D-V-3FY-C-W-F-Thr-dLys(DOTA)-CONH2] (Ac-[hLeu]YCVGKYDV[Tyr(3-F)]CWFT[dK](DOTA)-NH2; disulfide 3-11)
3 | < 1 | CC(=O)N[C@@H](CCC(C)C)C(=O)N[C@@H](Cc1ccc(O)cc1)C(=O)N[C@H]1CSSC[C@@H](C(=O)N[C@@H](Cc2c[nH]c3ccccc23)C(=O)N[C@@H](Cc2ccccc2)C(=O)N[C@H](C(=O)N[C@H](CCCCNC(=O)CN2CCN(CC(=O)O)CCN(CC(=O)O)CCN(CC(=O)O)CC2)C(N)=O)[C@@H](C)O)NC(=O)[C@H](Cc2ccc(O)cc2)NC(=O)[C@H](C2CCCCC2)NC(=O)[C@H](CC(=O)O)NC(=O)[C@H](Cc2ccncc2)NC(=O)[C@H](CCCCN)NC(=O)CNC(=O)[C@H](C(C)(C)C)NC1=O [compound 152, Ac-hLeu-Y-C-Tbg-G-K-4PyA-D-ChG-Y-C-W-F-Thr-dLys(DOTA)-CONH2] (Ac-[hLeu]YC[Tle]GK[4Pal]D[Chg]YCWFT[dK](DOTA)-NH2; disulfide 3-11)
4 | < 1 | CC(=O)N[C@@H](CCC(C)C)C(=O)N[C@@H](Cc1ccc(O)cc1)C(=O)N[C@H]1CSSC[C@@H](C(=O)N[C@@H](Cc2c[nH]c3ccccc23)C(=O)N[C@@H](Cc2ccccc2)C(=O)N[C@H](C(=O)N[C@H](CCCCNC(=O)CN2CCN(CC(=O)O)CCN(CC(=O)O)CCN(CC(=O)O)CC2)C(N)=O)[C@@H](C)O)NC(=O)[C@H](Cc2ccc(O)cc2)NC(=O)[C@H](C2CCCCC2)NC(=O)[C@H](CC(=O)O)NC(=O)[C@H](Cc2ccncc2)NC(=O)[C@H](CCCCN)NC(=O)CNC(=O)[C@H](C(C)C)NC1=O [compound 153, Ac-hLeu-Y-C-V-G-K-4PyA-D-ChG-Y-C-W-F-Thr-dLys(DOTA)-CONH2] (Ac-[hLeu]YCVGK[4Pal]D[Chg]YCWFT[dK](DOTA)-NH2; disulfide 3-11)
5 | < 1 | CC(=O)N[C@@H](CCC(C)C)C(=O)N[C@@H](Cc1ccc(O)cc1)C(=O)N[C@H]1CSSC[C@@H](C(=O)N[C@@H](Cc2c[nH]c3ccccc23)C(=O)N[C@@H](Cc2ccccc2)C(=O)N[C@H](C(=O)N[C@H](CCCCNC(=O)CN2CCN(CC(=O)O)CCN(CC(=O)O)CCN(CC(=O)O)CC2)C(N)=O)[C@@H](C)O)NC(=O)[C@H](Cc2ccc(O)cc2)NC(=O)[C@H](C(C)C)NC(=O)[C@H](CC(=O)O)NC(=O)[C@H](Cc2ccc(O)cc2)NC(=O)[C@H](CC2CCNCC2)NC(=O)CNC(=O)[C@H](C(C)C)NC1=O [compound 154, Ac-hLeu-Y-C-V-G-PipAla-Y-D-V-Y-C-W-F-Thr-dLys(DOTA)-CONH2] (Ac-[hLeu]YCVG[Ala(piperidin-4-yl)]YDVYCWFT[dK](DOTA)-NH2; disulfide 3-11)
6 | < 1 | CC(=O)N[C@@H](CCC(C)C)C(=O)N[C@@H](Cc1ccc(O)cc1)C(=O)N[C@H]1CSSC[C@@H](C(=O)N[C@@H](Cc2c[nH]c3ccccc23)C(=O)N[C@@H](Cc2ccccc2)C(=O)N[C@H](C(=O)N[C@H](CCCCNC(=O)CN2CCN(CC(=O)O)CCN(CC(=O)O)CCN(CC(=O)O)CC2)C(N)=O)[C@@H](C)O)NC(=O)[C@H](Cc2ccc(O)cc2)NC(=O)[C@H](C(C)C)NC(=O)[C@H](CC(=O)O)NC(=O)[C@H](Cc2ccncc2)NC(=O)[C@H](CCCCN)NC(=O)CNC(=O)[C@H](C(C)C)NC1=O [compound 155, Ac-hLeu-Y-C-V-G-K-4PyA-D-V-Y-C-W-F-Thr-dLys(DOTA)-CONH2] (Ac-[hLeu]YCVGK[4Pal]DVYCWFT[dK](DOTA)-NH2; disulfide 3-11)
7 | 10 to 100 | CC(=O)N[C@@H](CCC(C)C)C(=O)N[C@@H](Cc1ccc(O)cc1)C(=O)N[C@H]1CSSC[C@@H](C(=O)N[C@@H](Cc2c[nH]c3ncccc23)C(=O)N[C@@H](Cc2ccccc2)C(=O)N[C@H](C(=O)N[C@H](CCCCNC(=O)CN2CCN(CC(=O)O)CCN(CC(=O)O)CCN(CC(=O)O)CC2)C(N)=O)[C@@H](C)O)NC(=O)[C@H](Cc2ccc(O)cc2)NC(=O)[C@H](C(C)C)NC(=O)[C@H](CC(=O)O)NC(=O)[C@H](Cc2ccc(O)cc2)NC(=O)[C@H](CCCCN)NC(=O)CNC(=O)[C@H](C(C)C)NC1=O [compound 156, Ac-hLeu-Y-C-V-G-K-Y-D-V-Y-C-7NW-F-Thr-dLys(DOTA)-CONH2] (Ac-[hLeu]YCVGKYDVYC[Trp(7-aza)]FT[dK](DOTA)-NH2; disulfide 3-11)
8 | 10 to 100 | CC(=O)N[C@@H](CCC(C)C)C(=O)N[C@@H](Cc1ccc(O)cc1)C(=O)N[C@H]1CSSC[C@@H](C(=O)N[C@@H](Cc2ccc3ccccc3c2)C(=O)N[C@@H](Cc2ccccc2)C(=O)N[C@H](C(=O)N[C@H](CCCCNC(=O)CN2CCN(CC(=O)O)CCN(CC(=O)O)CCN(CC(=O)O)CC2)C(=O)O)[C@@H](C)O)NC(=O)[C@H](Cc2ccc(O)cc2)NC(=O)[C@H](C(C)C)NC(=O)[C@H](CC(=O)O)NC(=O)[C@H](Cc2ccc(O)cc2)NC(=O)[C@H](CCCCN)NC(=O)CNC(=O)[C@H](C(C)C)NC1=O [compound 159, Ac-hLeu-Y-C-V-G-K-Y-D-V-Y-C-2Nal-F-Thr-dLys(DOTA)-CONH2] (Ac-[hLeu]YCVGKYDVYC[2Nal]FT[dK](DOTA)-OH; disulfide 3-11)
9 | 1 to 10 | CC(=O)N[C@@H](CCC(C)C)C(=O)N[C@@H](Cc1ccc(O)cc1)C(=O)N[C@H]1CSSC[C@@H](C(=O)N[C@@H](Cc2c[nH]c3ccc(F)cc23)C(=O)N[C@@H](Cc2ccccc2)C(=O)N2C[C@H](O)C[C@H]2C(=O)N[C@H](CCCCNC(=O)CN2CCN(CC(=O)O)CCN(CC(=O)O)CCN(CC(=O)O)CC2)C(N)=O)NC(=O)[C@H](Cc2ccc(O)cc2)NC(=O)[C@H](C(C)C)NC(=O)[C@H](CC(=O)O)NC(=O)[C@H](Cc2ccc(O)cc2)NC(=O)[C@H](CCCCN)NC(=O)CNC(=O)[C@H](C(C)C)NC1=O [compound 161, Ac-hLeu-Y-C-V-G-K-Y-D-V-Y-C-5FW-F-4OHPro-dLys(DOTA)-CONH2] (Ac-[hLeu]YCVGKYDVYC[Trp(5-F)]F[Hyp][dK](DOTA)-NH2; disulfide 3-11)
10 | 10 to 100 | CC(=O)N[C@@H](CCC(C)C)C(=O)N[C@@H](Cc1ccc(O)cc1)C(=O)N[C@H]1CSSC[C@@H](C(=O)N[C@@H](Cc2c[nH]c3ccc(F)cc23)C(=O)N[C@@H](Cc2ccccc2)C(=O)N[C@@H](C(=O)N[C@H](CCCCNC(=O)CN2CCN(CC(=O)O)CCN(CC(=O)O)CCN(CC(=O)O)CC2)C(N)=O)[C@H](C)O)NC(=O)[C@H](Cc2ccc(O)cc2)NC(=O)[C@H](C(C)C)NC(=O)[C@H](CC(=O)O)NC(=O)[C@H](Cc2ccc(O)cc2)NC(=O)[C@H](CCCCN)NC(=O)CNC(=O)[C@H](C(C)C)NC1=O [compound 163, Ac-hLeu-Y-C-V-G-K-Y-D-V-Y-C-5FW-F-dThr-dLys(DOTA)-CONH2] (Ac-[hLeu]YCVGKYDVYC[Trp(5-F)]F[dT][dK](DOTA)-NH2; disulfide 3-11)
11 | < 1 | CC(=O)N[C@@H](CCC(C)C)C(=O)N[C@@H](Cc1ccc(O)cc1)C(=O)N[C@H]1CSSC[C@@H](C(=O)N[C@@H](Cc2c[nH]c3ccc(F)cc23)C(=O)N[C@@H](Cc2ccccc2F)C(=O)N[C@H](C(=O)N[C@H](CCCCNC(=O)CN2CCN(CC(=O)O)CCN(CC(=O)O)CCN(CC(=O)O)CC2)C(N)=O)[C@@H](C)O)NC(=O)[C@H](Cc2ccc(O)cc2)NC(=O)[C@H](C(C)C)NC(=O)[C@H](CC(=O)O)NC(=O)[C@H](Cc2ccc(O)cc2)NC(=O)[C@H](CCCCN)NC(=O)CNC(=O)[C@H](C(C)C)NC1=O [compound 164, Ac-hLeu-Y-C-V-G-K-Y-D-V-Y-C-5FW-2FPhe-Thr-dLys(DOTA)-CONH2] (Ac-[hLeu]YCVGKYDVYC[Trp(5-F)][Phe(2-F)]T[dK](DOTA)-NH2; disulfide 3-11)
12 | 1 to 10 | CC(=O)N[C@@H](CCC(C)C)C(=O)N[C@@H](Cc1ccc(O)cc1)C(=O)N[C@H]1CSSC[C@@H](C(=O)N[C@@H](Cc2c[nH]c3ccc(F)cc23)C(=O)N[C@@H](Cc2ccccc2C)C(=O)N[C@H](C(=O)N[C@H](CCCCNC(=O)CN2CCN(CC(=O)O)CCN(CC(=O)O)CCN(CC(=O)O)CC2)C(N)=O)[C@@H](C)O)NC(=O)[C@H](Cc2ccc(O)cc2)NC(=O)[C@H](C(C)C)NC(=O)[C@H](CC(=O)O)NC(=O)[C@H](Cc2ccc(O)cc2)NC(=O)[C@H](CCCCN)NC(=O)CNC(=O)[C@H](C(C)C)NC1=O [compound 165, Ac-hLeu-Y-C-V-G-K-Y-D-V-Y-C-5FW-2MePhe-Thr-dLys(DOTA)-CONH2] (Ac-[hLeu]YCVGKYDVYC[Trp(5-F)][Phe(2-Me)]T[dK](DOTA)-NH2; disulfide 3-11)
